Test results: US8263562B2, “Peptides for preventing or treating liver damage” (priority 2006, dated 2012)

How the values were obtained:
[1] = tested on: BCG vaccine and lipopolysaccharide-induced immunological liver damage; assay type: in vivo, Wistar Rats; settings: 13.5 mg/kg intraperitoneal, every day for 7 days
[2] = tested on: D-aminogalactose-induced acute liver damage; assay: D-aminogalactose-induced acute liver damage of rats; assay type: in vivo, Wistar Rats; settings: 13.5 mg/kg intraperitoneal, every day for 7 days
From the text: Wistar Rats (body weight of each was 180 g˜220 g; half of them were male and the others were female; and they were purchased from Shanghai Slac Laboratory Animal, Inc.) were divided randomly into 6 groups as follows with 10 rats in each group: (1) the diammonium glycyrrhizinate injection group, injected with diammonium glycyrrhizinate; (2) the high dose group, immunized with Peptide A and adjuvant; (3) the medium dose group, immunized with Peptide A and adjuvant; (4) the low dose group, immunized with Peptide A and adjuvant; (5) the blank control group; and (6) the model group.
Rats in the high dose group, the medium dose group and the low dose group were immunized as follows: At Day 0, the first immunization was performed by the following process: 100 μl of Peptide A dissolved in physiological saline was mixed thoroughly with the equivalent volume of Freund's complete adjuvant, and then 0.2 ml of the resultant water-in-oil emulsion was administered via subcutaneous injection to each rat, wherein the dosage of Peptide A contained in the emulsion was 174 μg/kg rat body weight for the high dose group, 87 μg/kg rat body weight for the medium dose group, and 43.5 μg/kg rat body weight for the low dose group respectively. 14 days later, the second immunization was performed in the same dosage and manner as the first immunization except that, Freund's complete adjuvant was replaced by Freund's incomplete adjuvant. […]
At the 48th hour after intraperitoneally injecting D-aminogalactose, each rat was sacrificed by cervical dislocation, and blood was collected. After sera were isolated, according to the specification of the manufacturer, the activities of glutamic-pyruvic transaminase (SGPT) and glutamic-oxalacetic transaminase (SGOT) in sera were detected respectively by using Glutamic-pyruvic Transaminase Detection Kit (purchased from Nanjing Jiancheng Bioengineering Institute) and Glutamic-oxalacetic Transaminase Detection Kit (purchased from Nanjing Jiancheng Bioengineering Institute).

[3] = tested on: Sera of Patients with HCV (anti-HCV antibody-positive sera); assay: Indirect ELISA, reactivity of the peptides to anti-HCV antibody-positive sera; assay type: binding, human; settings: for reactivity to sera of patients with HCV compared to sera of patients with HBV and healthy donors: X^2-test; for Percentage of Positive Cases (%) / The Number of Positive Cases: anti-HCV antibody-positive sera of 30 patients, sera dilution 1:100, 10 μg peptide coated
Procedure: Anti-HCV antibody-positive sera: randomly obtained from inpatients infected with HCV in the Liberation Army 302 Hospital from 2000 to 2001.
(§1) The reactivity of the individual peptide of the invention to sera was detected by standard indirect ELISA technology using Model DG3022 Enzyme-Linked Immunoassay Analyzer (purchased from Perkin Elmer Corporation). 10 μg of Peptide A, Peptide B, Peptide C, and Peptide Conjugate A were added respectively into the basic coating buffer (0.1 mol/L NaHCO3, 35 μl; 0.1 mol/L Na2CO3, 15 μl; H2O, 50 μl), and then transferred into the wells of polypropylene/ethylene microtiter plate, and placed at 4° C. overnight. After adding 120 μl of FCS-PBS, each well was blocked at 37° C. for 2 hours. Sera (dilution of 1:100) were then added to the wells, and incubated at 37° C. for 1 hour. Goat anti-human IgGs (dilution of 1:1000) (purchased from Sino-American Biotechnology Company, Beijing) were then added to the wells, and incubated at 37° C. for 1 hour. 50 μl of Solution A and Solution B (purchased from Beijing Kewei Reagent Company) were added to every well, placed in the dark for 5 min, and then the absorbance at 450 nm was measured.

[4] = tested on: sera of patients with HBV; assay: Indirect ELISA, reactivity of the peptides to sera of patients with Hepatitis B; assay type: binding, human; settings: sera of 10 patients with HBV
Procedure: Sera of patients with Hepatitis B (HBV): obtained from inpatients with Hepatitis B in the Liberation Army 302 Hospital, who was positive for the surface antigen of Hepatitis B virus as assayed.
as §1

[5] = tested on: sera of healthy donors; assay: Indirect ELISA, reactivity of the peptides to control sera of healthy donors; assay type: binding, human; settings: sera of 10 healthy donors
Procedure: Control sera: obtained from healthy blood donors, who had normal blood indexes in each assay.
as §1

[6] = tested on: IL-4; assay: Level of IL-4 in sera of immunized mice by ELISA; assay type: in vivo, BALB/c Mice; settings: first day after the fourth immunization
Procedure: (§2) BALB/c Mice, all of which are male, 6 week old, and purchased from the Laboratory Animal Center of Academy Of Military Medical Sciences, Beijing, were divided into 4 groups as follows with 5 mice in each group: (1) the control group; (2) the Peptide A group, immunized with Peptide A; (3) the Peptide B group, immunized with Peptide B; and (4) the Peptide C group, immunized with Peptide C.
(§3) 50 μl of the peptide (100 μg/μl) used in the corresponding group and 50 μl of Freund's complete adjuvant (GIBCOBRL Corp.) were mixed thoroughly with a microstirrer, and the mixture was injected into the claw pad of a mouse, thereby the first immunization was performed for each of the mice. 14 days later, booster immunization was performed in the same manner as the first immunization with 50 μl of the peptide (100 μg/μl) used in the corresponding group and 50 μl of Freund's complete adjuvant (GIBCOBRL Corp.). 14 days later, another booster immunization was performed in the same manner. 14 days later, boost immunization was performed by injecting 100 μg of the peptide dissolved in 200 μl PBS into the mouse intramuscularly. During the process of immunization, only the corresponding adjuvant and PBS were injected for the control group. At the first day after the fourth immunization, mice were sacrificed and sera were collected.
(§4) According to the specification of the manufacturer, the levels of cytokines (i.e., IL-4, IL-10, and γ-IFN) in sera of the above immunized mice were detected respectively by using IL-4 Quantikine ELASA Kit, IL-10 Quantikine ELASA Kit, and γ-IFN Quantikine ELASA Kit (all of which are purchased from R&D, Inc.).

[7] = tested on: IL-10; assay: Level of IL-10 in sera of immunized mice by ELISA; assay type: in vivo, BALB/c Mice; settings: first day after the fourth immunization
Procedure: as §2, §3, §4

[8] = tested on: γ-IFN; assay: Level of γ-IFN in sera of immunized mice by ELISA; assay type: in vivo, BALB/c Mice; settings: first day after the fourth immunization
Procedure: as §2, §3, §4

| Compound | protective effect on liver damage of rats (SGPT, SGOT) [1] | protective effect on liver damage of rats (pathological condition score) [1] | protective effect on acute liver damage of rats (SGPT, SGOT) [2] | reactivity to sera of patients with HCV compared to sera of patients with HBV and healthy donors [3] | Percentage of Positive Cases (%) [3] [%] | The Number of Positive Cases [3] | reactivity in ELISA Assay to sera of patients with HBV [4] | reactivity in ELISA Assay to sera of healthy donors [5] | IL-4(pg/ml serum) [6] [pg/ml serum] | IL-10(pg/ml serum) [7] [pg/ml serum] | γ-IFN(pg/ml serum) [8] [pg/ml serum] |
| --- | --- | --- | --- | --- | --- | --- | --- | --- | --- | --- | --- |
| CC1(C)[C@@H](O[C@H]2O[C@H](C(=O)O)[C@@H](O)[C@H](O)[C@H]2O[C@@H]2O[C@H](C(=O)O)[C@@H](O)[C@H](O)[C@H]2O)CC[C@]2(C)[C@H]3C(=O)C=C4[C@@H]5C[C@@](C)(C(=O)O)CC[C@]5(C)CC[C@@]4(C)[C@]3(C)CC[C@@H]12.N.N [diammonium glycyrrhizinate injection, diammonium glycyrrhizinate, reference compound] | no significant protective effect | no significant protective effect | significant protective effect |  |  |  |  |  |  |  |  |
| GQTYTSGA [Peptide B] |  |  |  | significantly react | 50 | 15 | negative | negative | 30.64 ± 4.9 | 27.94 ± 6.4 | 28.46 ± 5.9 |
| GQTYTSGG [Peptide C] |  |  |  | significantly react | 47 | 14 | negative | negative | 31.22 ± 5.0 | 26.926 ± 5.8 | 24.81 ± 5.8 |
